Data taken from PMC3361698 (Chemistry & biology, 2012).

What was measured:
[1] = target: T1, EcPPCS (phosphopantothenoylcysteine synthetase) (Escherichia coli, UniProt P0ABQ0); assay: CD melting temperature shift; assay type: binding
[2] = target: T2, SaPanKII (pantothenate kinase, type II) (Staphylococcus aureus, UniProt Q8NVG0); assay type: biochemical
[3] = target: T2, SaPanKII (pantothenate kinase, type II); assay: coupled spectrophotometric kinase assay with purified enzyme; assay type: biochemical
[4] = target: T1, EcPPCS (phosphopantothenoylcysteine synthetase); assay: pyrophosphate release, HPLC/LCMS of cytidylylation; assay type: biochemical
[5] = target: T1, EcPPCS (phosphopantothenoylcysteine synthetase); assay: CD melting temperature shift; assay type: binding; remark: listed apart in the source
[6] = target: T3, SaCoaBC (bifunctional CoaBC protein, phosphopantothenoylcysteine synthetase) (Staphylococcus aureus, UniProt Q2G268); assay: progress curve inhibition analysis; assay type: biochemical
T3 sequence (Q2G268 1-399): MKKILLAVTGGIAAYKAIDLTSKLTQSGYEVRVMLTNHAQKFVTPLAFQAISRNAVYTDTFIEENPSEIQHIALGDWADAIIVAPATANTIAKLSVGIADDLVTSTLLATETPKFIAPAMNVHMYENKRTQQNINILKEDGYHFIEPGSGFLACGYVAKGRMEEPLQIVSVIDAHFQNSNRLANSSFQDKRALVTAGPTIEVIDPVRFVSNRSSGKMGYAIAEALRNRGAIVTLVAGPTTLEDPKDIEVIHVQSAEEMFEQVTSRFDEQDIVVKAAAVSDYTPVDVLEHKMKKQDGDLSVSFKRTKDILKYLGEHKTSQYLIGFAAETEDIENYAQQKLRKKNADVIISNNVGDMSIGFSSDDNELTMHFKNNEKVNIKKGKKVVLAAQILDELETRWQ

[7] = target: T1, EcPPCS (phosphopantothenoylcysteine synthetase); assay: progress curves with Morrison fit, inhibitor formed in situ from P-CJ and CTP; assay type: biochemical

T1 sequence (P0ABQ0 181-406): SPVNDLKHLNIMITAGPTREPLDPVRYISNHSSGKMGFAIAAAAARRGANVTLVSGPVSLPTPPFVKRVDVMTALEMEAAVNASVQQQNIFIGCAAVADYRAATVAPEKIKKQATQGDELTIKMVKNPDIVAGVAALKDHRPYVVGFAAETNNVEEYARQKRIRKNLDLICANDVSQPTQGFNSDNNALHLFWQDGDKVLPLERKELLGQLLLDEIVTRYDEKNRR
T2 sequence (Q8NVG0 whole entry): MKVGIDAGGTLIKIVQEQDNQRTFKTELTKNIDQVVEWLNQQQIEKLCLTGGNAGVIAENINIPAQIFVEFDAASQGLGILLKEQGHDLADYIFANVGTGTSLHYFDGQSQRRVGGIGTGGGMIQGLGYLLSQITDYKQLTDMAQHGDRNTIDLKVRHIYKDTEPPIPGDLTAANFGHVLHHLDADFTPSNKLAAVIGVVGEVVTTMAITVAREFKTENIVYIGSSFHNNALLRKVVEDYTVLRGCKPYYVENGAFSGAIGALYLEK

Nc1ccn([C@@H]2O[C@H](COP(=O)(O)OP(=O)(O)OP(=O)(O)O)[C@@H](O)[C@H]2O)c(=O)n1 [CTP] was tested, and the “CD melting temperature shift (47.7 to 49.7 °C)” value [1] was 49.7 °C (Tm).

With CC(C)(CO)[C@@H](O)C(=O)N/C=C/C(=O)O [compound 1, CJ-15,801] the “HPLC of phosphorylation and coupled spectrophotometric kinase assay with purifie” value [2] was 13.8±4.2 mM^−1.s^−1 (kcat/Km).

With CC(C)(CO)[C@@H](O)C(=O)NCCC(=O)O [compound 2, pantothenic acid] the “coupled spectrophotometric kinase assay with purified enzyme” value [3] was 30.2±8.7 mM^−1.s^−1 (kcat/Km).

Work on CC(C)(COP(=O)(O)O)[C@@H](O)C(=O)N/C=C/C(=O)O [compound 13, P-CJ] yielded an IC50 [4] of 2660 ± 160 nM.

In the case of CC(C)(COP(=O)(O)O)[C@@H](O)C(=O)NCCC(=O)OP(=O)(O)OC[C@H]1O[C@@H](n2ccc(N)nc2=O)[C@H](O)[C@@H]1O [compound 14, P-Pan-CMP], the “CD melting temperature shift (47.7 to 54.3 °C), formed in situ from P-Pan and CT” value [5] is reported as 54.3 °C (Tm).

CC(C)(COP(=O)(O)O)[C@@H](O)C(=O)N/C=C/C(=O)OP(=O)(O)OC[C@H]1O[C@@H](n2ccc(N)nc2=O)[C@H](O)[C@@H]1O [compound 16, P-CJ-CMP] showed a Ki [6] of 13 nM and a Ki [7] of 164 nM.
